Like-named read-outs stand apart in the source and are kept apart here.
Key:
mouse sEH = target: T1, mouse sEH (Mus musculus, UniProt P34914); test: Inhibition of recombinant mouse sEH, IC50 assay with 4-nitrophenyl-trans-2,3-epoxy-3-phenylpropyl carbonate as substrate; type: biochemical; details: read-out: IC50 (μM) Mouse sEH
T1 construct: made in house; host or cells: baculovirus expression system
T1 sequence (P34914 1-554): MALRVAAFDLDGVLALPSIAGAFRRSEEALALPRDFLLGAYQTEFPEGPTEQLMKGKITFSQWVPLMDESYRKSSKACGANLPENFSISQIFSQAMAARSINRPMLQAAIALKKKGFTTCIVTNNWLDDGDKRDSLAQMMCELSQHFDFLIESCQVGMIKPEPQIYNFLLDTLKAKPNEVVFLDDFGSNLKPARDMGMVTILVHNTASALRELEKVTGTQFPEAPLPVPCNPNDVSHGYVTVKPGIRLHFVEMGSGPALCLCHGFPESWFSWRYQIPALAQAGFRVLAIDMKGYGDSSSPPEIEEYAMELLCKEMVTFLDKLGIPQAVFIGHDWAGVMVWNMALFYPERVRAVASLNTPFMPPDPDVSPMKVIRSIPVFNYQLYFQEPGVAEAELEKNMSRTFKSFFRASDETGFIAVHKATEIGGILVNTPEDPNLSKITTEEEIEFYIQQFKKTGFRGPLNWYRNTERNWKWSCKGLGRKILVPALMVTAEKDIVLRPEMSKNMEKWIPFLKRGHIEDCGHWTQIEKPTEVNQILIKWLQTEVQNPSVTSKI
Protocol: (§1) Assays were performed in triplicate. […] The curve was generated from at least three separate runs, each in triplicate, to obtain the standard deviation (SD) given in Table 1 thru Table 4.

human sEH = target: T2, human sEH (Homo sapiens, UniProt P34913); test: Inhibition of recombinant human sEH, IC50 assay with 4-nitrophenyl-trans-2,3-epoxy-3-phenylpropyl carbonate as substrate; type: biochemical
T2 construct: made in house; host or cells: baculovirus expression system
T2 sequence (P34913 1-555): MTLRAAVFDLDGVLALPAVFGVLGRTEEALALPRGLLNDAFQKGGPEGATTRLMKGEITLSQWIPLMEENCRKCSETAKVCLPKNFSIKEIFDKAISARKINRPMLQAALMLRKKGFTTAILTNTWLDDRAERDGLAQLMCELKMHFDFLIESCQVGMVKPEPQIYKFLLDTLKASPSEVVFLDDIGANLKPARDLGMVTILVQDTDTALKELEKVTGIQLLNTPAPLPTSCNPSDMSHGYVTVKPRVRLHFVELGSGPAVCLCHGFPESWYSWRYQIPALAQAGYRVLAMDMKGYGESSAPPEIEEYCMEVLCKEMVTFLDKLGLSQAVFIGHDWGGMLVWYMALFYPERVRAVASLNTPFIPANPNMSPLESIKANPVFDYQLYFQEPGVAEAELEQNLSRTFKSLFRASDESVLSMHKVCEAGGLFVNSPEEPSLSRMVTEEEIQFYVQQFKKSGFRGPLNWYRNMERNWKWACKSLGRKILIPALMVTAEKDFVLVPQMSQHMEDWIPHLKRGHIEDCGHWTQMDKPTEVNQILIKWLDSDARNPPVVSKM
Protocol: as §1

[1] = Table 9, established protocols, read-out: IC50 (μM) Human sEH
[2] = Tables 17a and b, read-out: IC50 (μM) Human sEH
[3] = Table 1, […] enzyme, 5 min preincubation, pH 7.4, 30° C., [S] = 40 μM, means ± SD of three experiments
[4] = Table 1, […] enzyme, 5 min preincubation, pH 7.4, 30° C., [S] = 40 μM, means ± SD of three experiments, read-out: IC50 (μM) Human sEH
[5] = Table 3, […] enzyme, 5 min preincubation, pH 7.4, 30° C., means ± SD
[6] = Table 3, […] enzyme, 5 min preincubation, pH 7.4, 30° C., means ± SD, read-out: IC50 (μM) Human sEH

Work on CC(C)=CCOC1CCC(NC(=O)NC23CC4CC(CC(C4)C2)C3)CC1 (centres unmarked) [Compound 983] yielded an IC50 (mouse sEH; Table 9, established protocols) of 0.05 ± 0.01 µM and an IC50 (human sEH; [1]) of 0.1 ± 0.01 µM.

CC(=O)Nc1ccc(CC(=O)NC23CC4CC(CC(C4)C2)C3)cc1 [Compound 912] gave an IC50 (mouse sEH; Tables 17a and b) of 4.1 ± 0.01 µM and an IC50 (human sEH; [2]) of 35 ± 0.01 µM.

Compound CCCCCOC(=O)c1ccc(NC(=O)NC23CC4CC(CC(C4)C2)C3)cc1 [Compound 860] has an IC50 (mouse sEH; Table 9, established protocols) of 0.05 ± 0.01 µM and an IC50 (human sEH; [1]) of 0.1 ± 0.01 µM.

Compound CCCCC(CO)NC(=O)NC1CCCCC1 (centres unmarked) [Compound 977] has an IC50 (mouse sEH; Tables 17a and b) of 0.1 ± 0.01 µM and an IC50 (human sEH; [2]) of 0.25 ± 0.01 µM.

Compound O=C(CC1CCCCC1)NCCc1ccccc1 [Compound 993] has an IC50 (mouse sEH; Tables 17a and b) of 2.1 ± 0.01 µM and an IC50 (human sEH; [2]) of 4 ± 0.01 µM.

Work on COC(=O)CCNC(=O)NC1CCCCC1 [Compound 635] yielded an IC50 (mouse sEH; [3]) of 2.5 ± 0.1 µM and an IC50 (human sEH; [4]) of 78 ± 4 µM.

For CCCCCCC(=O)CCCNC(=O)Nc1cccc(Cl)c1 [Compound 794, 1-(3-chlorophenyl)-3-(4-oxodecyl)urea], the IC50 (mouse sEH; [5]) was 0.41 ± 0.05 µM and the IC50 (human sEH; [6]) was 2.1 ± 0.2 µM.

Compound COC(=O)CNC(=O)NC1CCCCC1 [Compound 549] has an IC50 (mouse sEH; [3]) of 33 ± 2 µM and an IC50 (human sEH; [4]) of 70 ± 6 µM.

With CC(C)c1cccc2c(S(=O)(=O)NCCCOCCCCCNC(=O)NC34CC5CC(CC(C5)C3)C4)cccc12 [Compound 986] the IC50 (mouse sEH; Tables 17a and b) was 0.05 ± 0.01 µM and the IC50 (human sEH; [2]) was 0.29 ± 0.01 µM.

With O=C(NCCCCCCCCCCCn1ccnc1)NC12CC3CC(CC(C3)C1)C2 [Compound 997] the IC50 (mouse sEH; Tables 17a and b) was 2.3 ± 0.01 µM and the IC50 (human sEH; [2]) was 63 ± 0.01 µM.

CCCCCOC(=O)CCCCC(=O)Nc1cccc(Cl)c1 [Compound 987] showed an IC50 (mouse sEH; Tables 17a and b) of 1.7 ± 0.01 µM and an IC50 (human sEH; [2]) of 5.9 ± 0.01 µM.

CCCCC(C#N)OC(=O)CCCNC(=O)NC12CC3CC(CC(C3)C1)C2 (centres unmarked) [Compound 944] showed an IC50 (mouse sEH; Tables 17a and b) of 0.05 ± 0.01 µM and an IC50 (human sEH) of 0.2 ± 0.01 µM.

With CCOC(=O)c1ccc(C(C)OC(=O)CCCNC(=O)NC23CC4CC(CC(C4)C2)C3)cc1 (centres unmarked) [Compound 948] the IC50 (mouse sEH; Tables 17a and b) was 0.08 ± 0.01 µM and the IC50 (human sEH; [2]) was 0.12 ± 0.01 µM.

In the case of O=C(O)CCCCCNC(=O)NC1CCCCC1 [Compound 56], the IC50 (mouse sEH; Table 1, 0.12 μM enzyme, 5 min preincubation, pH 7.4, 30° C., [S] = 40 μM, means ± SD of three experiments) is reported as 90 ± 3 µM and the IC50 (human sEH; [4]) is reported as 253 ± 8 µM.

O=C(NCCCCCOCCOCCOCCO)NC12CC3CC(CC(C3)C1)C2 [Compound 975] gave an IC50 (mouse sEH; Table 7, established protocols) of 0.05 ± 0.01 µM and an IC50 (human sEH; Table 7, established protocols, read-out: IC50 (μM) Human sEH) of 0.1 ± 0.01 µM.

CCCCCCCCCCCC(=O)NC12CC3CC(CC(C3)C1)C2 [Compound 989] gave an IC50 (mouse sEH; Table 8, established protocols) of 0.05 ± 0.01 µM and an IC50 (human sEH; Table 8, established protocols, read-out: IC50 (μM) Human sEH) of 5 ± 0.3 µM.

Compound CCOC(=O)c1ccc(COCCOCCOCCCCCNC(=O)NC23CC4CC(CC(C4)C2)C3)cc1 [Compound 956] has an IC50 (mouse sEH; Tables 17a and b) of 0.05 ± 0.01 µM and an IC50 (human sEH; [2]) of 0.1 ± 0.01 µM.

For CSC(NC(=O)C(NC(=O)CCCNC(=O)NC12CC3CC(CC(C3)C1)C2)c1c[nH]cn1)C(=O)O (centres unmarked) [Compound 1013], the IC50 (mouse sEH; Tables 17a and b) was 0.05 ± 0.01 µM and the IC50 (human sEH; [2]) was 1.5 ± 0.01 µM.

Work on CCCCCOC(=O)C1CCCC(NC(=O)NC23CC4CC(CC(C4)C2)C3)C1 (centres unmarked) [Compound 906] yielded an IC50 (mouse sEH; Tables 17a and b) of 0.05 ± 0.01 µM and an IC50 (human sEH) of 0.1 ± 0.01 µM.

In the case of CCOC(=O)c1ccc(C(C#N)OC(=O)C2CCCC(NC(=O)NC34CC5CC(CC(C5)C3)C4)C2)cc1 (centres unmarked) [Compound 1014], the IC50 (mouse sEH; Table 9, established protocols) is reported as 0.05 ± 0.01 µM and the IC50 (human sEH; [1]) is reported as 0.14 ± 0.01 µM.

In the case of O=C(NN1CCOCC1)NC12CC3CC(CC(C3)C1)C2 [Compound 1015], the IC50 (mouse sEH; Tables 17a and b) is reported as 1.3 ± 0.01 µM and the IC50 (human sEH; [2]) is reported as 8.7 ± 0.01 µM.

Work on CCCCCNC(=O)CCCNC(=O)Nc1cccc(Cl)c1 [Compound 768, 1-(3-chlorophenyl)-3-(3-pentylaminocarbonylpropyl)urea] yielded an IC50 (mouse sEH; [5]) of 7.2 ± 0.9 µM and an IC50 (human sEH; [6]) of 32 ± 0.8 µM.
